Experimental data from patent US10258048B2, “Bacillus sp. strain with antifungal, antibacterial and growth promotion activity” (Marrone Bio Innovations, Inc, priority 2012, dated 2019).

test system: Bacillus sp. isolate F727; experiment: Antibiotic susceptibility of Bacillus sp. isolate F727, antibiotic discs on Mueller-Hinton agar; type: cell-based; parameters: key: +++ indicates highly susceptible (no growth); ++ indicates moderately susceptible (reduced growth); − indicates no susceptibility; settings: pre-loaded antibiotic discs (load in ug); 25° C., 48 hours
Method: Antibiotic susceptibility of Bacillus sp. isolate F727 was tested using antibiotic discs on Muller-Hinton medium. A loopful of F727 was resuspended in 1 mL of sterile deionized water, and 100 μL of this suspension was streaked onto a Mueller-Hinton agar plate. After absorption of the streak into the agar, pre-loaded antibiotic discs were placed on the plate, and the plate was incubated at 25° C. for 48 hours.

| Molecule | Susceptibility of Bacillus sp. F727 to various antibiotics |
| --- | --- |
| Gentamicin | +++ |
| NC[C@H]1O[C@H](O[C@H]2[C@H](O)[C@@H](O[C@H]3O[C@H](CO)[C@@H](O)[C@H](N)[C@H]3O)[C@H](N)C[C@@H]2N)[C@H](O)[C@@H](O)[C@@H]1O [Kanamycin] | +++ |
| CO/N=C(\C(=O)N[C@@H]1C(=O)N2C(C(=O)O)=C(COC(N)=O)CS[C@H]12)c1ccco1 [Cefuroxime] | +++ |
| C[C@@H](O)[C@H]1C(=O)N2C(C(=O)O)=C(SCCN=CN)C[C@H]12 [Imipenem] | +++ |
| O=C(O)c1cn(C2CC2)c2cc(N3CCNCC3)c(F)cc2c1=O [Ciprofloxacin] | +++ |
| [H]/N=C(/N)N[C@H]1[C@H](O)[C@@H](O)[C@H](O[C@@H]2O[C@@H](C)[C@](O)(C=O)[C@H]2O[C@@H]2O[C@@H](CO)[C@H](O)[C@@H](O)[C@@H]2NC)[C@@H](N/C(N)=N\[H])[C@@H]1O [Streptomycin] | ++ |
| CC1(C)S[C@@H]2[C@H](NC(=O)[C@H](N)c3ccccc3)C(=O)N2[C@H]1C(=O)O [Ampicillin] | +++ |
| O=C(N[C@H](CO)[C@H](O)c1ccc([N+](=O)[O-])cc1)C(Cl)Cl [Chloramphenicol] | +++ |
| CN(C)[C@@H]1C(O)=C(C(N)=O)C(=O)[C@@]2(O)C(O)=C3C(=O)c4c(O)cccc4[C@@](C)(O)[C@H]3[C@H](O)[C@@H]12 [Oxytetracycline] | +++ |
| CN(C)[C@@H]1C(O)=C(C(N)=O)C(=O)[C@@]2(O)C(O)=C3C(=O)c4c(O)cccc4[C@@](C)(O)[C@H]3C[C@@H]12 [Tetracycline] | +++ |
| Sulphamethoxazole-Trimethoprim | +++ |
| Penicillin | +++ |
| CCN1CCN(C(=O)N[C@@H](C(=O)N[C@@H]2C(=O)N3[C@@H]2SC(C)(C)[C@@H]3C(=O)O)c2ccccc2)C(=O)C1=O [Piperacillin] | +++ |
| CC[C@H]1OC(=O)[C@H](C)[C@@H](O[C@H]2C[C@@](C)(OC)[C@@H](O)[C@H](C)O2)[C@H](C)[C@@H](O[C@@H]2O[C@H](C)C[C@H](N(C)C)[C@H]2O)[C@](C)(O)C[C@@H](C)C(=O)[C@H](C)[C@@H](O)[C@]1(C)O [Erythromycin] | +++ |
